Data taken from patent publication US5886178A, “3-aroylbenzylpyridazinone derivatives” (Syntex (U.S.A.) Inc., priority 1997, dated 1999).

How the values were obtained:
[1] = system: prostaglandin E2 synthesis; assay: Inhibition of eicosanoid (PGE2) synthesis in vivo, carrageenan air-pouch model in rats; design: species or system rat; conditions: oral, male rats
Protocol: In this assay, an air-pouch is created in the rat and the PGE2 levels in the air-pouch exudate are measured by enzyme immunoassay. Briefly, male rats were anesthetized using a 60:40 CO2 :O2 mixture and subsequently injected subcutaneously with 20 ml of sterilized air, under aseptic conditions, in the proximal area of the dorsum. This injection of sterile air causes the creation of a subcutaneous "air pouch". The next day, a further 10 ml of sterile air was injected into the previously formed pouch using the same technique. […] Control rats received vehicle alone. After 30 minutes, 5 ml of a 0.5% solution of carrageenan (Sigma, Lambda Type IV) was injected into the air pouch. The rats were euthanized 3 hr after the compound administration. […] The total exudate volume was recorded, and the samples were analyzed for PGE2 and 6-keto PGF1 by ELISA (Titerzyme®, PerSeptive Diagnostics) and TxB2 by radioimmuno assay (New England Nuclear Research, Catalog No. NEK-037), according to the manufacturer's directions.
The mean concentrations of PGE2 were calculated for each group. The anti-inflammatory activity of test materials is expressed as the percent inhibition of PGE2 formation in the test group relative to the control group.

[2] = Carrageenan-induced paw edema in the rat (anti-inflammatory activity); type: in vivo; conditions: 3 h, 30 mg/Kg, oral, female rats, read-out: % inhibition of increase in hind paw weight
Protocol: The anti-inflammatory activity of compounds of this invention was determined by measuring the inhibition of carrageenan-induced paw edema in the rat, using a modification of the method described in Winter C. k et al (1962) "Carrageenan-Induced Edema in Hind Paw of the Rat as an Assay for Anti-inflammatory Drugs". Proc. Soc. Exp. Biol. Med. 111: 544-547. This assay has been used as a primary in vivo screen for anti-inflammatory activity of most NSAIDs, and is considered predictive of human efficacy. Briefly, test materials were administered orally to female rats in a volume of 1 ml prepared as solutions or suspensions in an aqueous vehicle containing 0.9% NaCl, 0.5% sodium carboxymethyl-cellulose, 0.4% polysorbate 80, 0.9% benzyl alcohol and 97.3% distilled water. Control rats received vehicle alone. After 1 hr 0.05 ml of a 0.5% solution of Carrageenan (Type IV Lambda, Sigma Chemical Co.) in 0.9% saline was injected into the subplantar region of the right hind paw. Three hours later the rats were euthanized in a carbon dioxide atmosphere; hind paws were removed by severing at the tatso-crural joint; and the left and right paws were weighed. The increase in weight of the right paw over the left paw was obtained for each animal and the mean increases were calculated for each group. The anti-inflammatory activity of the test materials is expressed as the percent inhibition of the increase in hind paw weight of the test group relative to the vehicle-dosed control group.
The anti-inflammatory activities (expressed as % inhibition) of some of the compounds of the invention were: […]

COX I [3] = target: T1, COX I (Homo sapiens, UniProt P23219); assay: Inhibition of COX I in vitro, partially purified enzyme, radiometric assay; type: biochemical; design: made in house; conditions: 20 micromolar arachidonic acid
Protocol: (§1) The COX I and COX II inhibitory activity of compounds of this invention in vitro was determined using partially purified COX I and COX II enzymes, prepared as described in J. Barnett et al, Biochim. Biophys.
(§2) COX I and COX II samples were diluted with Tris-HCl buffer (50 mM Tris-HCl, pH 7.9) containing 2 mM EDTA and 10% glycerol and reconstituted by incubating first with 2 mM phenol for 5 minutes and then with 1 micromolar hematin for an additional 5 minutes. 125 μl of the reconstituted COX I or COX II enzyme were preincubated for 10 minutes at room temperature in a shaking water bath with the compounds of the invention dissolved in 2-15 μl of DMSO or the carrier vehicles (control samples). The enzyme reaction was initiated by adding 25 μl of 1-[14C]arachidonic acid (80,000-100,000 cpm/tube; 20 micromolar final concentration) and the reaction was allowed to continue for an additional 45 seconds. The reaction was terminated by adding 100 μl of 2N HCl and 750 μl water. An aliquot (950 μl) of the reaction mixture was loaded onto a 1 ml C18 Sep-Pak column (J. T. Baker, Phillipsburg, N.J.) which had been previously washed with 2-3 ml methanol and equilibrated with 5-6 ml distilled water. Oxygenated products were quantitatively eluted with 3 ml of acetonitrile/water/acetic acid (50:50:0.1, v/v) and the radioactivity in the eluate determined in a scintillation counter.

COX II [4] = target: T2, COX II (Homo sapiens, UniProt P35354); assay: Inhibition of COX II in vitro, partially purified enzyme, radiometric assay; type: biochemical; design: made in house; conditions: 20 micromolar arachidonic acid
T2 sequence (P35354 18-604): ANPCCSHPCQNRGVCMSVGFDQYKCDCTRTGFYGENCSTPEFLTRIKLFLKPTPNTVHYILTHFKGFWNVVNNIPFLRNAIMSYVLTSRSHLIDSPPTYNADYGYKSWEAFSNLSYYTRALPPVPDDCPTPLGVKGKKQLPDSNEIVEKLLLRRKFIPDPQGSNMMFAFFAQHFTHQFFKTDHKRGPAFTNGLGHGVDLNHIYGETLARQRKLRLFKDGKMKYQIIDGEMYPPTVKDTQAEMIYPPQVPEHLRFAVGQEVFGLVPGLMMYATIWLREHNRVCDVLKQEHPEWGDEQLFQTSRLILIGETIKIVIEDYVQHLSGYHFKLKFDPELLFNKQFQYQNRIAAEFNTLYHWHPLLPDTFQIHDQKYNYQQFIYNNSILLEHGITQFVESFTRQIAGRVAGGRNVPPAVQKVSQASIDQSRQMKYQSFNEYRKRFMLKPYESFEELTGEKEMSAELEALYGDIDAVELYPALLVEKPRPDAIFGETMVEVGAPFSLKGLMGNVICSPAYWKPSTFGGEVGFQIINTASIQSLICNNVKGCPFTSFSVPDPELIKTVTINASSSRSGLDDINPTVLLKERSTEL
Protocol: as §1, §2

COX I [5] = target: T1, COX I; assay: Inhibition of COX I in a cell based assay (human promonocytic THP cells, TXB2 ELISA); design: endogenous in cells; host or cells: human promonocytic THP cells, PMA-treated
Protocol: (§3) The COX I and COX II inhibitory activity of compounds of this invention in a cell based assay was determined as described below.
The inhibitory activity of the test compounds against cell associated COX-1 was measured using human promonocytic THP cells. Cells were plated in 96-well microtiter plates at a density of 8×10^4 cells/well in RPMI-1640 medium (Gibco). COX-1 activity was initiated by incubating the cells with 0.1μM phorbol 12-myristate 13-acetate (PMA, Sigma) in dimethyl sulfoxide (DMSO, Aldrich) at 37° C. After 40-48 hours, the medium was removed, and the cells were washed twice with phosphate buffered saline (PBS, Gibco). 225 μl/well of fresh medium containing desired concentrations of the test compounds in DMSO, or the carrier vehicles (control wells), was added and the cells incubated at 37° C. for 30 minutes; after which 5 μM calcium ionophore A23187 (Sigma) was added and the incubation was continued for an additional 10 minutes. The reaction was terminated by transferring the plates to ice. The culture supernatants were transferred and appropriately diluted and the amount of thromboxane B2 (TXB2) present in each supernatant was quantitated using an ELISA kit (Cayman Chemicals).
(§4) The COX I and COX II inhibitory activities in the cell based assay (expressed as IC50) of some compounds of the invention were: […]

COX II [6] = target: T2, COX II; assay: Inhibition of COX II in a cell based assay (human foreskin fibroblasts, PGE2 ELISA); design: host or cells: primary human foreskin fibroblasts (HFF), induced with PMA and human interleukin-1; conditions: human foreskin fibroblasts (HFF)
Protocol: as §3
The inhibitory activity of test compounds against cell associated COX-2 was measured using primary cultures of human foreskin fibroblasts (HFF). HFF cultures were obtained from ATCC, grown in DMEM medium (Gibco) and used between 13-30 passages. Cells were plated in 96-well microtiter plates at a density of 6-8×10^4 cells/well in DMEM containing 10% fetal calf serum (Sigma) and cultured at 37° C. until they became confluent. The medium was removed and the cells were washed once with PBS. COX-2 activity was induced by incubating the cells with fresh DMEM containing 0.1 μM phorbol 12-myristate 13-acetate (PMA, Sigma) and 1ng/ml of human interleukin-1 (Sigma) at 37° C. After 16 h the medium was removed and the cells were washed twice with phosphate buffered saline (PBS, Gibco). 200 μl/well of fresh medium containing desired concentrations of the test compounds in DMSO, or the carrier vehicle (control wells) was added and the cells incubated at 37° C. for 30 minutes; after which 5 μM calcium ionophore A23187 (Sigma) was added and the incubation was continued for an additional 10 minutes. The reaction was terminated by transferring the plates to ice. The culture supernatants were transferred and appropriately diluted, and the amount of prostaglandin E2 (PGE2) present in each supernatant was quantitated using an ELISA kit (Cayman Chemicals).
as §4

T1 sequence (P23219 24-599): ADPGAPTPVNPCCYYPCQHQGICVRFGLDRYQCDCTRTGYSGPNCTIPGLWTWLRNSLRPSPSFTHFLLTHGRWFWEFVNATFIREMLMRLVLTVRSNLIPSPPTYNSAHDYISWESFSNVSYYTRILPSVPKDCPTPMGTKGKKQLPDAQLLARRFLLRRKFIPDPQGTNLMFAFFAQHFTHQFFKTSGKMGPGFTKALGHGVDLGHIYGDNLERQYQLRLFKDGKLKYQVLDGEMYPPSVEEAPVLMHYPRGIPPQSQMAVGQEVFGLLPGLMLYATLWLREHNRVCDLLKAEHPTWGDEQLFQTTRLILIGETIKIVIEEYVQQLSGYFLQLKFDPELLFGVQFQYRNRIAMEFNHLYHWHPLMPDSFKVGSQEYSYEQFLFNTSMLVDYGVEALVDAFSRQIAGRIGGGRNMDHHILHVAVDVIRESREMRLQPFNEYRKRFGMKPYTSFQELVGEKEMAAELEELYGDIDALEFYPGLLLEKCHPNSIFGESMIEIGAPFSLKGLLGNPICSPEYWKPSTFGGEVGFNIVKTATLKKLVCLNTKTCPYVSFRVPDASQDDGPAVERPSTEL

| Structure (SMILES) | IC50 (COX I [3]) | IC50 (COX II [4]) | IC50 (COX I [5]) | IC50 (COX II [6]) | % inhibition of air pouch PGE2 formation ([1]; 10 mg/Kg) | inhibition in vivo at 30 mg/kg [2] | % inhibition of air pouch PGE2 formation ([1]; 30 mg/Kg) |
| --- | --- | --- | --- | --- | --- | --- | --- |
| CSc1ccc(C(=O)c2cccc(Cc3ccc(=O)[nH]n3)c2Cl)cc1 [Cpd 5, 6-[3-(4-methylthio-benzoyl)-2-chlorobenzyl]-2H-pyridazin-3-one] | – | – | – | – | 32% | – | – |
| CSc1ccc(C(=O)c2cccc(Cc3ccc(=O)[nH]n3)c2C)cc1 [Cpd 10, 6-[3-(4-methylthiobenzoyl)-2-methylbenzyl]-2H-pyridazin-3-one] | – | – | – | – | 24% | – | – |
| COc1ccc(C(=O)c2c(Cl)cc(Cl)cc2Cl)cc1Cc1ccc(=O)[nH]n1 [Cpd 26, 6-[3-(2,4,6-trichlorobenzoyl)-6-methoxybenzyl]-2H-pyridazin-3-one] | 540 µM | 0.6 µM | 19 µM | 0.3 µM | – | 24% | – |
| COc1ccc(C(=O)c2c(Br)cc(C)cc2Br)cc1Cc1ccc(=O)[nH]n1 [Cpd 39, 6-[3-(2,6-dibromo-4-methylbenzoyl)-6-methoxybenzyl]-2H-pyridazin-3-one] | 100 µM | 1 µM | 26 µM | 1 µM | – | 33% | – |
| COc1ccc(C(=O)c2c(C)cc(C)cc2C)cc1Cc1ccc(=O)[nH]n1 [Cpd 44, 6-[3-(2,4,6-trimethylbenzoyl)-6-methoxybenzyl]-2H-pyridazin-3-one] | 100 µM | 1.3 µM | 16 µM | 1.2 µM | – | 19% | – |
| O=C(c1ccc(Cl)c(Cc2ccc(=O)[nH]n2)c1)c1c(Cl)cc(Cl)cc1Cl [Cpd 73, 6-[3-(2,4,6-trichlorobenzoyl)-6-chlorobenzyl]-2H-pyridazin-3-one] | 423 µM | 0.16 µM | 21 µM | 0.2 µM | – | 33% | – |

Continued, in another order:

| IC50 (COX I [3]) | IC50 (COX II [4]) | IC50 (COX I [5]) | IC50 (COX II [6]) | Structure (SMILES) | % inhibition of air pouch PGE2 formation ([1]; 10 mg/Kg) | inhibition in vivo at 30 mg/kg [2] | % inhibition of air pouch PGE2 formation ([1]; 30 mg/Kg) |
| --- | --- | --- | --- | --- | --- | --- | --- |
| 100 µM | 2 µM | – | 3.4 µM | COc1ccc(C(=O)c2c(Cl)cc(C)cc2Cl)cc1Cc1ccc(=O)[nH]n1 [Cpd 28, 6-[3-(2,6-dichloro-4-methylbenzoyl)-6-methoxybenzyl]-2H-pyridazin-3-one] | – | 21% | – |
| 1000 µM | 1.3 µM | – | 4 µM | COc1ccc(C(=O)c2c(Cl)cc(Cl)cc2Cl)cc1Cc1ccc(=O)n(C)n1 [Cpd 31, 6-[3-(2,4,6-trichlorobenzoyl)-6-methoxybenzyl]-2-methyl-2H-pyridazin-3-one] | – | 38% | – |
| 310 µM | 0.18 µM | – | 0.48 µM | Cc1ccc(C(=O)c2c(Cl)cc(Cl)cc2Cl)cc1Cc1ccc(=O)[nH]n1 [Cpd 61, 6-[3-(2,4,6-trichlorobenzoyl)-6-methylbenzyl]-2H-pyridazin-3-one] | – | – | – |
| 300 µM | 0.18 µM | – | 0.3 µM | Cc1ccc(C(=O)c2c(Cl)cc(Cl)cc2Cl)cc1Cc1ccc(=O)n(C)n1 [Cpd 62, 6-[3-(2,4,6-trichlorobenzoyl)-6-methylbenzyl]-2-methyl-2H-pyridazin-3-one] | – | 33% | – |
| 300 µM | 0.14 µM | 17 µM | 0.03 µM | O=C(c1ccc(F)c(Cc2ccc(=O)[nH]n2)c1)c1c(Cl)cc(Cl)cc1Cl [Cpd 77, 6-[3-(2,4,6-trichlorobenzoyl)-6-fluorobenzyl]-2H-pyridazin-3-one] | – | – | 53% |
| 740 µM | 2 µM | – | 0.3 µM | O=C(c1cccc(Cc2ccc(=O)[nH]n2)c1)c1c(Cl)cc(Cl)cc1Cl [Cpd 78, 6-[3-(2,4,6-trichlorobenzoyl)benzyl]-2H-pyridazin-3-one] | – | 22% | – |
